Experimental findings from patent US20120004272A1, “BIOCIDAL COMPOSITION OF 2,6-DIMETHYL-M-DIOXANE-4-OL ACETATE AND METHODS OF USE” (priority 2009, published 2012) are described below.

Assay [1] deals with Pseudomonas aeruginosa (ATCC#15442, ATCC#10145), Enterobacter aerogenes, Escherichia coli, Klebsiella pneumoniae, Staphylococcus aureus, Salmonella …. Description: Preservative efficacy (multi-challenge, 96-deep well) in spinning finish emulsion. Type of assay: cell-based. The conditions noted are these: Day 27, post 4th microbial challenge; ppm active.
For assay [2] the test system is unchanged. Description: Preservative efficacy (multi-challenge, 96-deep well) in water-based latex paint, pH 7.4. In kind it is cell-based.
[3] abbreviates: Day 15, after four bacterial challenges, ppm active.
Setting [4] is: Day 20, after four bacterial challenges, ppm active.

Consider `ClC=CC[N+]12CN3CN(CN(C3)C1)C2.[Cl-]` [CTAC], for which the “CTAC alone (ppm), concentration necessary for ≧6 log10 microbial kill” value in assay [1] came to 582 ppm.

On to `CC1(C)COCN1` [DMO, 4,4-Dimethyloxazolidine], for which the “DMO alone (ppm), concentration required for ≧4 log10 microbial kill” value in assay [2] (setting [3]) was found to be 308 ppm. In addition, the “log10 viable microorganisms, DMO alone score” value in assay [2] (Day 15, DMO 91 ppm) is listed as 8 log10; in assay [2] (Day 15, DMO 137 ppm), 7 log10; in assay [2] (Day 15, DMO 205 ppm) it was 6 log10; in assay [2] (Day 15, DMO 308 ppm), 0 log10; in assay [2] (Day 15, DMO 463 ppm), 0 log10; in assay [2] (Day 15, DMO 693 ppm), 0 log10. The “log10 viable microorganisms, DMO alone score” value in assay [2] (Day 15, DMO 1040 ppm) was 0 log10; in assay [2] (Day 15, DMO 1560 ppm), 0 log10. Further, in assay [1], the “DMO alone (ppm), concentration necessary for ≧6 log10 microbial kill” value was 355 ppm.

Consider `CC(=O)OC1CC(C)OC(C)O1` (stereo not shown) [DMX, 2,6-Dimethyl-m-dioxan-4-ol acetate], for which the “DMX alone (ppm), concentration required for ≧4 log10 microbial kill” value in assay [2] (setting [3]) and in assay [2] (setting [4]) was 1740 ppm each time. Moreover, the “log10 viable microorganisms, DMX alone” value is listed as 7 log10 in assay [2] (Day 15, DMX 102 ppm); 7 log10 in assay [2] (Day 15, DMX 153 ppm); 8 log10 in assay [2] (Day 15, DMX 229 ppm); 8 log10 in assay [2] (Day 15, DMX 344 ppm); 7 log10 in assay [2] (Day 15, DMX 516 ppm); 8 log10 in assay [2] (Day 15, DMX 773 ppm). The “log10 viable microorganisms, DMX alone” value was found to be 5 log10 in assay [2] (Day 15, DMX 1160 ppm); 0 log10 in assay [2] (Day 15, DMX 1740 ppm); 8 log10 in assay [2] (Day 20, DMX 102 ppm); 8 log10 in assay [2] (Day 20, DMX 153 ppm); 8 log10 in assay [2] (Day 20, DMX 229 ppm); 8 log10 in assay [2] (Day 20, DMX 344 ppm). For the same molecule, the “log10 viable microorganisms, DMX alone” value in assay [2] (Day 20, DMX 516 ppm) is given as 8 log10; in assay [2] (Day 20, DMX 773 ppm), 8 log10; in assay [2] (Day 20, DMX 1160 ppm) it was 8 log10; in assay [2] (Day 20, DMX 1740 ppm), 4 log10. Besides, the “DMX alone (ppm), concentration necessary for ≧6 log10 microbial kill” value in assay [1] is 1339 ppm.

Consider `CCC12COCN1COC2` [EBCO, 7-Ethyl-bicyclooxazolidine], for which the “EBCO alone (ppm), concentration required for ≧4 log10 microbial kill” value in assay [2] (setting [4]) was determined as 1920 ppm. Besides, the “log10 viable microorganisms, EBCO alone score” value in assay [2] (Day 20, EBCO 112 ppm) is on record as 8 log10; in assay [2] (Day 20, EBCO 169 ppm), 8 log10; in assay [2] (Day 20, EBCO 252 ppm), 8 log10; in assay [2] (Day 20, EBCO 379 ppm), 7 log10; in assay [2] (Day 20, EBCO 569 ppm), 7 log10; in assay [2] (Day 20, EBCO 853 ppm) it was 8 log10. Besides, the “log10 viable microorganisms, EBCO alone score” value in assay [2] (Day 20, EBCO 1280 ppm) worked out at 7 log10; in assay [2] (Day 20, EBCO 1920 ppm) it was 0 log10.

On to `O=[N+]([O-])C(CO)(CO)CO` [TN, 2-Hydroxymethyl-2-nitro-1,3-propanediol], for which the “TN alone (ppm), concentration necessary for ≧6 log10 microbial kill” value in assay [1] is recorded as 592 ppm.
